Data as given in US9359297B2, “Spirolactam derivatives and uses of same” (H. Lundbeck A/S, priority 2009, dated 2016).
Read-outs that look alike come from different tables or passages of the source.

Key:
[1] = target: mGluR5 (allosteric site, [3H]MPEP) (Homo sapiens, UniProt P41594); assay: [3H]MPEP radioligand filtration binding assay on membrane homogenates; conditions: 5 nM [3H]MPEP; Ki from IC50 by Cheng and Prusoff equation
Description: Binding assays were performed as described in [J. A. O'Brien et al. Mol. Pharmacol., 2003, 64, 731-740] with slight modifications. Briefly, after thawing, the membrane homogenates were resuspended in 50 mM Tris-HCl, 0.9% NaCl binding buffer at pH 7.4 to a final assay concentration of 40 μg protein/well for [^3H]2-methyl-6-phenylethynyl-pyridine ([^3H] MPEP) (American Radiolabeled Chemicals, Inc., St. Louis, Mo.) filtration binding. Incubations included 5 nM [^3H] MPEP, membranes and either buffer or varying concentrations of compound. Samples were incubated for 60 min at room temperature with shaking. Non-specific binding was defined with 10 μM MPEP. After incubation, samples were filtered over a GF/C filter (presoaked in 0.25% polyethyleneimine (PEI)) and then washed 4 times using a Tomtec® Harvester 96® Mach III cell harvester (Tomtec, Hamden, Conn.) with 0.5 mL ice-cold 50 mM Tris-HCl (pH 7.4).
IC50 values were derived from the inhibition curve and Ki values were calculated according to the Cheng and Prusoff equation of Ki=IC50/(1+[L]/Kd) described in [Y. Cheng and W. H. Prusoff Biochem. Pharmacol. 1973, 22, 3099-3108] where [L] is the concentration of radioligand and Kd is its dissociation constant at the receptor, derived from the saturation isotherm.

[2] = target: T1, rat metabotropic glutamate receptor 5 (rmGluR5) (Rattus norvegicus, UniProt P31424); assay: Calcium mobilization (FLIPR) assay for negative allosteric modulation, EC80 glutamate, rmGluR5 in HEK 293; format: cell-based; conditions: HEK293; rmGluR5, inhibition of EC80 glutamate response; read-out: FLIPR maximum inhibition
T1 construct: expressed in transfected cells
Description: The cDNA for rat metabotropic glutamate receptor 5 (rmGluR5) and the cDNA for human metabotropic glutamate receptor 5 (hmGluR5) were generous gifts from S. Nakanishi (Kyoto University, Kyoto, Japan). The rmGluR5 or hmGluR5 was stably expressed in a HEK 293 cell line and grown in Dulbecco's Modified Eagle Medium (DMEM) (Invitrogen, Carlsbad, Calif.) with supplements (10% bovine calf serum, 4 mM glutamine, 100 units/mL penicillin, 100 μg/mL streptomycin and 0.75 mM G1418) at 37° C., 5% CO2. Twenty-four hours prior to assay, cells were seeded into 384-well black wall microtiter plates coated with poly-D-lysine. Just prior to assay, media was aspirated and cells dye-loaded (25 μL/well) with 3 μM Fluo-4/0.01% pluronic acid in assay buffer (Hank's Balanced Saline Solution (HBSS)): 150 mM NaCl, 5 mM KCl, 1 mM CaCl2, 1 mM MgCl2, plus 20 mM N-2-Hydroxyethylpiperazine-N′-2-ethanesulfonic acid (HEPES), pH 7.4, 0.1% bovine serum albumin (BSA) and 2.5 mM probenicid) for 1 hour in 5% CO2 at 37° C. After excess dye was discarded, cells were washed in assay buffer and layered with a final volume equal to 30 μL/well. Basal fluorescence is monitored in a fluorometric imaging plate reader (FLIPR) (Molecular Devices, Sunnyvale, Calif.) with an excitation wavelength of 488 nm and an emission range of 500 to 560 nm. Laser excitation energy was adjusted so that basal fluorescence readings were approximately 10,000 relative fluorescent units. Cells were stimulated with an EC20 or an EC80 concentration of glutamate in the presence of a compound to be tested, both diluted in assay buffer, and relative fluorescent units were measured at defined intervals (exposure=0.6 sec) over a 3 min period at room temperature. Basal readings derived from negative controls were subtracted from all samples. Maximum change in fluorescence was calculated for each well. Concentration-response curves derived from the maximum change in fluorescence were analyzed by nonlinear regression (Hill equation). A negative modulator can be identified from these concentration-response curves if a compound produces a concentration dependent inhibition of the EC80 glutamate response.

male CD1 mice = assay: Mouse marble burying (mMB) assay; format: in vivo; conditions: 30 mpk (sc), FIG. 1
Text: More specifically for the mMB testing, adult, male CD1 mice (Charles River Laboratories (Kingston, N.Y.)), weighing 25 to 30 g, were used. All animals were group-housed in a standard colony room with a 12:12 light/dark cycle (lights on at 6:00 am) for at least one week prior to testing. Food and water were provided ad libitum. Animals were weighed, tail marked, and randomly assigned to treatment groups before testing.
For each test, sixty minutes after the injection of vehicle or test compound, or 30 min after injection of the positive control, buspirone, mice were individually placed into test cages containing 1.5 in of Aspen bedding (PWI brand) and two rows of 10 marbles (20 marbles per test cage total). Filter tops were used to cover each test cage. Thirty minutes later, mice were removed from test cages and returned to their home cages. The number of fully visible marbles (less than ⅔ covered with bedding) were counted and subtracted from 20 to arrive at the number of marbles buried. Twelve mice were tested per group.
Testing included multiple tests with each test performed to evaluate buspirone hydrochloride (BUS; Sigma Aldrich) (positive control) and/or a compound of formula (I). […] Doses were measured in mg drug (salt form) per kg body weight. Data was analyzed using one-way ANOVA with post-hoc Dunnett's test.

[3] = test system: Male Rj: Wistar (Hans) rats; assay: Vogel Conflict Test (punished drinking); format: in vivo; conditions: rat
Description: The “Vogel Conflict Test” as described by Vogel et al. [Psychopharmacologia, 1971, 21, 1-7] was used to detect anxiolytic activity of a compound of formula (I) because anxiolytics increase punished drinking. In the test, rats were deprived of water for approximately 48 hours and were then placed individually into a transparent Plexiglas® enclosure (15×32×34 cm) with a floor consisting of stainless steel bars (0.4 cm) spaced 1 cm apart. The back wall of the enclosure was made of opaque Plexiglas® thereby concealing the observer from the experimental animal. In the center of the opposite wall, 5 cm above the floor, a metal water spout protruded into the cage and was connected to one pole of a shock generator (Apelex: Type 011346). The other pole of the shock generator was connected to the metal grid floor.
The rat was left to explore until it found the water spout. Then, every time it drank, it received a slight electric shock (1.7 mA, 1 s) 2 seconds after it started lapping. The number of punished drinks was counted during a 3 minute test. The test was performed blind with 10 rats per group. Testing included multiple tests using reference compounds and a compound of formula (I) that were prepared and administered as described below in the LES test. Male Rj: Wistar (Hans) rats as described therein were used after acclimatization conditions were achieved. Data was analyzed by comparing treated groups with appropriate controls using unpaired Student's t tests.

[4] = target: T2, human metabotropic glutamate receptor 5 (hmGluR5) (Homo sapiens, UniProt P41594); assay: Calcium mobilization (FLIPR) assay for negative allosteric modulation, EC80 glutamate, hmGluR5 in HEK 293; format: cell-based; conditions: HEK293; hmGluR5, inhibition of EC80 glutamate response; read-out: FLIPR maximum inhibition
T2 construct: expressed in transfected cells
Procedure, shortened: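 Stably transfected HEK 293 cells, Fluo-4-loaded, stimulated with EC80 glutamate plus test compound in HBSS/20 mM HEPES pH 7.4 with probenecid; FLIPR fluorescence read over 3 min at room temperature. Basal-subtracted maximum fluorescence change fitted by Hill equation; negative modulation seen as concentration-dependent inhibition of the EC80 response.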

C57BL/6NTac mice = conditions: three weeks treatment, cited from earlier work

T1 sequence (P31424 21-1203): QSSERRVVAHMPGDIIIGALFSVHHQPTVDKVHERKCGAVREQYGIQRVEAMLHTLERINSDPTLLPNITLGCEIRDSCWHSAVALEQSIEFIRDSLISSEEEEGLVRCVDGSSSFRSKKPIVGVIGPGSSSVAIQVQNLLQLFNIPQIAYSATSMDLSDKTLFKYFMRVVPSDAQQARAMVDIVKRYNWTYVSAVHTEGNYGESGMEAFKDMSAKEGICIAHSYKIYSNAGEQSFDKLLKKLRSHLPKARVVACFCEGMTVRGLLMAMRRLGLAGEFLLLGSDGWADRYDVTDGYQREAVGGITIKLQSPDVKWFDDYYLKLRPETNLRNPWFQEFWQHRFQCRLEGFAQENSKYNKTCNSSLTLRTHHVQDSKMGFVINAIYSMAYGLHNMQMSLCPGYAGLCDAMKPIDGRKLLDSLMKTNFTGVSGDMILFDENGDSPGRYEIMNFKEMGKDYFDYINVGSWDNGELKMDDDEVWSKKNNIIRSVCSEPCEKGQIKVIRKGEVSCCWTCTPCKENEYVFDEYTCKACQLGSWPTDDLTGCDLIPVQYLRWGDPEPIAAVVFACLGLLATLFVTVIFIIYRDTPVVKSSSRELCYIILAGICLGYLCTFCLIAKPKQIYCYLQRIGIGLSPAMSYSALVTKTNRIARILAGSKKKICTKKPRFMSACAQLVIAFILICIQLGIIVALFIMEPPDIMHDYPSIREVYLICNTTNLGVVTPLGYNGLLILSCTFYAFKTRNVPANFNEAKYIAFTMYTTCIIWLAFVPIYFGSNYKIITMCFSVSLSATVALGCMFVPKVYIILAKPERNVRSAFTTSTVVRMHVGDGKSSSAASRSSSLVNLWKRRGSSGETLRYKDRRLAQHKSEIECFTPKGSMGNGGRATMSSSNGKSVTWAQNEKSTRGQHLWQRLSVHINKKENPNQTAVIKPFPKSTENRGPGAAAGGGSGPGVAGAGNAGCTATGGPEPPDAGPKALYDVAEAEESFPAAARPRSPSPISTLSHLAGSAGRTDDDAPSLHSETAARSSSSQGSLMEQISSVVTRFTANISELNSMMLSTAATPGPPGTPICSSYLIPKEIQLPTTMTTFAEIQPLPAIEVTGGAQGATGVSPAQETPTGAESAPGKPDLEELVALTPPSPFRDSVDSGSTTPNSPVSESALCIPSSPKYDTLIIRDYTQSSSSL
Sequence of mGluR5 (allosteric site, [3H]MPEP) (P41594 21-1212): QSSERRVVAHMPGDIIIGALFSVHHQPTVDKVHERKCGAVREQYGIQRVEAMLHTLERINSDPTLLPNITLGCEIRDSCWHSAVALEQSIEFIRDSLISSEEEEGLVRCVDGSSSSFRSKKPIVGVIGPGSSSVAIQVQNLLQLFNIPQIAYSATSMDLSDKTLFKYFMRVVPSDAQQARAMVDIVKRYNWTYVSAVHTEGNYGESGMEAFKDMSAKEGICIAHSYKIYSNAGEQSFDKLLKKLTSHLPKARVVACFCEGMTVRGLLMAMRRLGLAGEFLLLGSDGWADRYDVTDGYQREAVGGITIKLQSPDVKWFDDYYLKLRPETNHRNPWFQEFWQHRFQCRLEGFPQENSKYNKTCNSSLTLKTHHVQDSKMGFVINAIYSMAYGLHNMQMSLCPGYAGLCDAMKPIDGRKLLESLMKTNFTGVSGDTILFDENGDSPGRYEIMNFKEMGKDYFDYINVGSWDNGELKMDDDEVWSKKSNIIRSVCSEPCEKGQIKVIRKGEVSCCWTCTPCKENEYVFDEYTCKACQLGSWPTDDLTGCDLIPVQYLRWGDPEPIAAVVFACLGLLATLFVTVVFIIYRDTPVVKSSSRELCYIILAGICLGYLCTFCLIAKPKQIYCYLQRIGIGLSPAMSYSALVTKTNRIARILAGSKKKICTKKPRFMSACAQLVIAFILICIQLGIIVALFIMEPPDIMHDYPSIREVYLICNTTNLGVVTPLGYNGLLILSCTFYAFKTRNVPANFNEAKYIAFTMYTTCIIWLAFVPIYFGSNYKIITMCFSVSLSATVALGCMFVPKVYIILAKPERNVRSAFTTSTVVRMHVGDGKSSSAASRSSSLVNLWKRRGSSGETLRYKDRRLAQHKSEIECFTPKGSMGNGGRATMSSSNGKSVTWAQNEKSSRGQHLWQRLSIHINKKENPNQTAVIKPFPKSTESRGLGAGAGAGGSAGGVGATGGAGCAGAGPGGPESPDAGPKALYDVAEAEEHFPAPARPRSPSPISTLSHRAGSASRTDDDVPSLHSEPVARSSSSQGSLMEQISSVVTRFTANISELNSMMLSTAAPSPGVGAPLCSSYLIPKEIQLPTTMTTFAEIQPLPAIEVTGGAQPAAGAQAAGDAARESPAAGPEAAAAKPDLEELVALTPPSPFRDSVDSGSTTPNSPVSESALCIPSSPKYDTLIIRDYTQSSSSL
T2 sequence (P41594 21-1212): as above

| Ki [1] | Emax [2] | Compound | further results |
| --- | --- | --- | --- |
| 74 nM | 81 to 99% | Cc1cccc(C(=O)N[C@H]2CCC[C@]3(CCN(c4cccc(Cl)c4)C3=O)C2)n1 (relative stereo) [Example 4, cis-6-Methyl-pyridine-2-carboxylic acid [2-(3-chloro-phenyl)-1-oxo-2-aza-spiro[4.5]dec-7-yl]-amide] | – |
| 190 nM | 81 to 99% | Cc1cccc(C(=O)N[C@H]2CCC[C@]3(CCN(c4cccc(C)n4)C3=O)C2)n1 (relative stereo) [Example 23, cis-6-Methyl-pyridine-2-carboxylic acid [2-(6-methyl-pyridin-2-yl)-1-oxo-2-aza-spiro[4.5]dec-7-yl]-amide] | – |

The remaining lines, values behind:

| Compound | Ki [1] | Emax [2] | further results |
| --- | --- | --- | --- |
| O=C(N[C@H]1CCC[C@]2(CCN(c3cccc(Cl)c3)C2=O)C1)c1ccccn1 (racemic) [Example 2, cis-pyridine-2-carboxylic acid [2-(3-chloro-phenyl)-1-oxo-2-aza-spiro[4.5]dec-7-yl]-amide] | 250 nM | 81 to 99% | – |
| O=C(N[C@@H]1CCC[C@@]2(CCN(c3cccc(Cl)c3)C2=O)C1)c1ccccn1 (single isomer, unassigned) [Example 5] | 95 nM | 81 to 99% | in vivo anxiolytic effect in mouse marble burying (male CD1 mice): statistically significant in vivo anxiolytic effect |
| O=C(N[C@@H]1CCC[C@@]2(CCN(c3cccc(F)c3)C2=O)C1)c1ccccn1 [Example 25, Pyridine-2-carboxylic acid [(5R,7R)-2-(3-fluoro-phenyl)-1-oxo-2-aza-spiro [4.5]dec-7-yl]-amide] | 130 nM | 81 to 99% | activity in the Vogel Conflict Test ([3]; 30 mpk (p.o.)): significant activity |
| Cc1nccc(C(=O)N[C@@H]2CCC[C@@]3(CCN(c4cc(F)cc(F)c4)C3=O)C2)n1 [Example 82, 2-Methyl-pyrimidine-4-carboxylic acid [(5R,7R)-2-(3,5-difluoro-phenyl)-1-oxo-2-aza-spiro[4.5]dec-7-yl]-amide] | – | – | Emax [4]: 73 to 95%; activity in the Vogel Conflict Test ([3]; 10 mpk (p.o.)): significant activity |
| Cc1nccc(N2CC[C@@]3(CCC[C@@H](NC(=O)c4cccc(F)c4)C3)C2=O)n1 [Example 147, 3-Fluoro-N-[(5R,7R)-2-(2-methyl-pyrimidin-4-yl)-1-oxo-2-aza-spiro[4.5]dec-7-yl]-benzamide] | – | – | Emax [4]: 47 to 93%; activity in the Vogel Conflict Test ([3]; 3 mpk (p.o.)): significant activity; activity in the Vogel Conflict Test ([3]; 10 mpk (p.o.)): significant activity; activity in the Vogel Conflict Test ([3]; 30 mpk (p.o.)): significant activity |
| CNCCC(Oc1ccc(C(F)(F)F)cc1)c1ccccc1 (centres unmarked) [fluoxetine] | – | – | effect on anxiety- and depression-like effects of seven weeks corticosterone in the OF, NSF and FST (C57BL/6NTac mice; 18 mg/kg/day ip): reversed the anxiety- and depression-like effects |
| CN(C)CCCN1c2ccccc2CCc2ccccc21 [imipramine] | – | – | effect on anxiety- and depression-like effects of seven weeks corticosterone in the OF, NSF and FST (C57BL/6NTac mice; 40 mg/kg/day ip): reversed the anxiety- and depression-like effects |
